Read-outs that look alike come from different tables or passages of the source.

The results in this text go back to patent US4064252A, “Substituted N-(carboxymethyl)-3-aminopropan-2-ol derivatives” (Nippon Shinyaku Co., Ltd., priority 1975, dated 1977).

One assay has as its system serum cholesterol. Kind of assay: Blood lipid lowering in 8 week-old male rats having normal serum lipid content: serum cholesterol. The assay is classed as in vivo. Particulars: Rattus norvegicus, po, 84 h, 3.5 days, vs non-treated control, read-out: % decrease of serum cholesterol; for inhibition in vivo at 10 mg/kg/day: 10 mg/kg/day oral; for inhibition in vivo at 20 mg/kg/day: 20 mg/kg/day oral; for inhibition in vivo at 100 mg/kg/day: 100 mg/kg/day oral. On the procedure: (§1) 1. Blood lipid lowering activities in 8 week-old male rats having normal serum lipid content.
(§2) The values shown in Table 1 indicate the concentration changes of serum cholesterol and serum triglycride after the treatment with the shown various doses/day for 3.5 days. The mentioned compounds were orally administered to rat's groups consisting of 10 animals through a stomach tube twice a day. Blood was usually withdrawn 4 hours after the last administration. Serum cholesterol concentration was determined by the method of Levine and Zak, and triglyceride by the method of Kassler and Laderer by means of autoanalyzer. In all examples shown in Table 1, % decrease of treated groups are then to the non-treated reference group (control group), where the value of control group is represented as 100%.
(§3) The values in Table 5 indicate the concentration changes of serum cholesterol and the triglyceride after the treatment with the shown various doses per day for 3.5 days. These compounds were orally administered to rat groups consisting of 10 animals through a stomach tube twice a day. Blood was usually withdrawn 4 hours after the last administration. Serum cholesterol concentration was determined by the method of Levine and Zak, and serum triglyceride by the method of Kessler and Lederer by means of autoanalyzer. In all examples shown in Table 1, % decrease of the treated groups are to the non-treated control group where the value of control group is represented as 100%. […] The following examples are given to illustrate the representative embodiment of this invention, but this invention is not limited to these examples.

The test system of a further assay is serum triglyceride. Kind of assay: Blood lipid lowering in 8 week-old male rats having normal serum lipid content: serum triglyceride. Particulars: 3.5 days, vs non-treated control; for inhibition in vivo at 10 mg/kg/day / inhibition in vivo at 20 mg/kg/day / inhibition in vivo at 100 mg/kg/day: Rattus norvegicus, po, 84 h, read-out: % decrease of serum triglyceride; for inhibition in vivo at 10 mg/kg/day: 10 mg/kg/day oral. The assay is classed as in vivo, rat. On the procedure:
as §1, §2, §3

The subject of the next assay is blood triglyceride. Put plainly: Blood triglyceride lowering in carbohydrate (fructose) induced hypertriglyceridemia of fructose loaded 9 week-old male rats. The assay is classed as in vivo, rat. Conditions: 3 days, vs fructose loaded control. The method, then: 2. Blood triglyceride lowering activities in the carbohydrate induced hypertriglyceridemia of fructose loaded 9 week-old rats.
Compounds shown in Table 2 were orally administered to the rat groups consisting of 10 animals for 3 days. Drinking of 10% fructose solution continued for 48 hours prior to sacrifice.
Fasting for 18 hours after the last administration, blood was withdrawn. In all examples shown in Table 2, % inhibitions of the treated groups are to the fructose loaded control group. The changed value of triglyoride content before and after the fructose load in the control group is represented as 100%.

The next assay deals with blood cholesterol. Put plainly: Blood cholesterol lowering in thiouracil induced hypercholesterolemia of thiouracil loaded 9 week-old male rats. In kind it is in vivo, rat. Conditions: 4 days, vs thiouracil loaded control. On the procedure:
3. Blood cholesterol lowering activities in the thiouracil induced hypercholesterolemia of thiouracil loaded 9 week-old male rats.
The compounds illustrated in Table 3 were orally administered for 4 days from the 4th day to rats given 0.1% thiouracil solution for 3 days as the pretreatment. Fasting for 18 hours after the last administration, blood was withdrawn. In all examples shown in Table 3, % inhibition of treated groups are to the thiouracil loaded control group, in which the changed value of cholesterol before and after the thiouracil load is represented as 100%.

`O=C(O)CN(CC(O)COc1ccc(Cl)cc1)c1ccccc1` (stereo not shown) [Compound 2]: in the assay with serum cholesterol (Table 1), the inhibition in vivo at 10 mg/kg/day worked out at 15.5%, the inhibition in vivo at 20 mg/kg/day worked out at 28.8% and the inhibition in vivo at 100 mg/kg/day was 33.5%. Moreover, in the assay with serum triglyceride (Table 1), the inhibition in vivo at 10 mg/kg/day is 53.6%. Also, the “% decrease of serum triglyceride” value with serum triglyceride (Table 1, 20 mg/kg/day oral, 20 mg/kg/day) is listed as 73.2%. The “% decrease of serum triglyceride” value in the assay with serum triglyceride (Table 1, 100 mg/kg/day oral, 100 mg/kg/day) amounted to 72.0%.
Regarding `COC(=O)CN(CC(O)COc1ccc(Cl)cc1)c1ccccc1` (stereo not shown) [Compound 4], the results for the “inhibition ratio (hypotriglyceridemic effect)” value in the assay with blood triglyceride (10 mg/kg/day oral), in the assay with blood triglyceride (30 mg/kg/day oral) and with blood triglyceride (100 mg/kg/day oral) were 46.5%, 69.9% and 93.0%, respectively. Further, the inhibition in vivo at 10 mg/kg/day in the assay on serum cholesterol (Table 1) was determined as 22.9%; in the assay on serum triglyceride (Table 1), 36.5%. Also, the inhibition in vivo at 20 mg/kg/day with serum cholesterol (Table 1) was found to be 23.4%; in the assay with serum triglyceride (Table 1, 20 mg/kg/day oral) it was 54.4%. Also, the inhibition in vivo at 100 mg/kg/day was determined as 39.1% with serum cholesterol (Table 1) and 59% in the assay with serum triglyceride (Table 1, 100 mg/kg/day oral). Also, the “inhibition ratio (hypocholesterolemic effect)” value in the assay with blood cholesterol (10 mg/kg/day oral) turned out to be 51.9%; in the assay with blood cholesterol (30 mg/kg/day oral), 57.9%; with blood cholesterol (100 mg/kg/day oral), 85.5%.
For `CCOC(=O)CN(CC(O)COc1ccc(Cl)cc1)c1ccccc1` (stereo not shown) [Compound 5], the “inhibition ratio (hypocholesterolemic effect)” value came out at 49.9% with blood cholesterol (10 mg/kg/day oral), 69.2% in the assay on blood cholesterol (30 mg/kg/day oral) and 100.7% in the assay on blood cholesterol (100 mg/kg/day oral).
On to `CCCOC(=O)CN(CC(O)COc1ccc(Cl)cc1)c1ccccc1` (stereo not shown) [Compound 6], for which the “inhibition ratio (hypotriglyceridemic effect)” value in the assay with blood triglyceride (10 mg/kg/day oral) was 55.9%; with blood triglyceride (30 mg/kg/day oral), 67.6%; in the assay with blood triglyceride (100 mg/kg/day oral), 85.7%. The inhibition in vivo at 20 mg/kg/day with serum cholesterol (Table 1) came out at 34.7%; in the assay with serum triglyceride (Table 1, 20 mg/kg/day oral), 49.6%. The inhibition in vivo at 100 mg/kg/day worked out at 41.2% in the assay on serum cholesterol (Table 1) and 72.4% with serum triglyceride (Table 1, 100 mg/kg/day oral). Besides, the “inhibition ratio (hypocholesterolemic effect)” value was 58.4% in the assay on blood cholesterol (10 mg/kg/day oral), 70.1% with blood cholesterol (30 mg/kg/day oral) and 94.9% in the assay with blood cholesterol (100 mg/kg/day oral).
In the case of `CCCCOC(=O)CN(CC(O)COc1ccc(Cl)cc1)c1ccccc1` (stereo not shown) [Compound 10], the “inhibition ratio (hypotriglyceridemic effect)” value is recorded as 48.5% in the assay with blood triglyceride (10 mg/kg/day oral), 61.5% in the assay with blood triglyceride (30 mg/kg/day oral) and 63.3% in the assay with blood triglyceride (100 mg/kg/day oral). For the same molecule, the “inhibition ratio (hypocholesterolemic effect)” value with blood cholesterol (10 mg/kg/day oral) was 52.6%; in the assay with blood cholesterol (30 mg/kg/day oral) it was 87.4%; in the assay with blood cholesterol (100 mg/kg/day oral), 94.9%.
In the case of `COC(=O)CN(CC(O)COc1ccccc1Cl)c1ccccc1` (stereo not shown) [Compound 11], the inhibition in vivo at 20 mg/kg/day is 21.5% with serum cholesterol (Table 1) and 65.4% in the assay with serum triglyceride (Table 1, 20 mg/kg/day oral). For the same molecule, the inhibition in vivo at 100 mg/kg/day in the assay on serum cholesterol (Table 1) worked out at 30.3%; in the assay on serum triglyceride (Table 1, 100 mg/kg/day oral), 66%.
Regarding `COC(=O)CN(CC(O)COc1ccc(C(C)(C)C)cc1)c1ccccc1` (stereo not shown) [Compound 18], the inhibition in vivo at 20 mg/kg/day with serum cholesterol (Table 1) is 12.4%; in the assay with serum triglyceride (Table 1, 20 mg/kg/day oral), 54.5%. The inhibition in vivo at 100 mg/kg/day is 14.9% with serum cholesterol (Table 1) and 59.3% in the assay on serum triglyceride (Table 1, 100 mg/kg/day oral).
For `NC(=O)CN(CC(O)COc1ccc(Cl)cc1)c1ccccc1` (stereo not shown) [Compound 32], the inhibition in vivo at 100 mg/kg/day was 29.6% in the assay on serum cholesterol (Table 1) and 56.6% in the assay on serum triglyceride (Table 1, 100 mg/kg/day oral).
Regarding `CCN(CC)C(=O)CN(CC(O)COc1ccc(Cl)cc1)c1ccccc1` (stereo not shown) [Compound 35], the inhibition in vivo at 100 mg/kg/day with serum cholesterol (Table 1) is 19.8%; in the assay with serum triglyceride (Table 1, 100 mg/kg/day oral) it was 52.7%.
Regarding `O=C(CN(CC(O)COc1ccc(Cl)cc1)c1ccccc1)NCc1ccccc1` (stereo not shown) [Compound 41], the inhibition in vivo at 100 mg/kg/day in the assay on serum cholesterol (Table 1) came out at 12.3%; in the assay on serum triglyceride (Table 1, 100 mg/kg/day oral) it was 53.2%.
In the case of `COC(=O)CN(CC(COc1ccc(Cl)cc1)OC(C)=O)c1ccccc1` (stereo not shown) [Compound 50, 2-acetoxy-1-(p-chlorophenoxy)-3-(N-carbomethoxymethyl-N-phenylamino) propane], the inhibition in vivo at 20 mg/kg/day in the assay with serum cholesterol (Table 5) came out at 21.5%; in the assay with serum triglyceride (Table 5, 20 mg/kg/day oral), 65.4%. In addition, the inhibition in vivo at 100 mg/kg/day in the assay on serum cholesterol (Table 5) was 30.3%; in the assay on serum triglyceride (Table 5, 100 mg/kg/day oral) it was 66%.
The corresponding values for `CCOC(=O)CN(CC(COc1ccc(Cl)cc1)OC(=O)c1cccnc1)c1ccccc1` (stereo not shown) [Compound 57] are 12.4%, 54.5%, 14.9% and 59.3%.
`N[C@@H](Cc1cc(I)c(Oc2cc(I)c(O)c(I)c2)c(I)c1)C(=O)O` [L-thyroxine, reference compound]: the “inhibition ratio (hypocholesterolemic effect)” value in the assay with blood cholesterol (3 mg/kg/day oral) was 54.8%.
Turning to `CCOC(=O)C(C)(C)Oc1ccc(Cl)cc1` [clofibrate, reference compound], the results for the “inhibition ratio (hypotriglyceridemic effect)” value with blood triglyceride (10 mg/kg/day oral), in the assay on blood triglyceride (30 mg/kg/day oral) and with blood triglyceride (100 mg/kg/day oral) were -16.6%, -2.3% and 23.2%, respectively. For the same molecule, the inhibition in vivo at 10 mg/kg/day was 5.8% in the assay on serum cholesterol (Table 1) and 6.2% in the assay on serum triglyceride (Table 1). The inhibition in vivo at 20 mg/kg/day worked out at 12.6% in the assay with serum cholesterol (Table 1); 12.6% with serum cholesterol (Table 5); 36.3% in the assay with serum triglyceride (Table 1, 20 mg/kg/day oral); 36.3% in the assay on serum triglyceride (Table 5, 20 mg/kg/day oral). The inhibition in vivo at 100 mg/kg/day in the assay on serum cholesterol (Table 1) was determined as 37%; in the assay with serum cholesterol (Table 5) it was 37%; in the assay with serum triglyceride (Table 1, 100 mg/kg/day oral), 51.7%; in the assay with serum triglyceride (Table 5, 100 mg/kg/day oral), 51.7%.
